Source: patent US20100189648A1, “INHIBITORS FOR DISRUPTING THE INTERACTION OF UBIQUITINATION RELATED ENZYMES AND USES THEREOF” (priority 2006, published 2010)

Columns and labels:
Type in all cases: cell-based, human
HCT116 = experiment: MTT survival assay, colon cancer cell line (HCT116); parameters: IC50 (95% confidence level), interval: unit not given beside the values
Experimental: The effect of the above identified compounds on anti-tumor activity in human carcinoma cells was determined by the MTT survival assay. The MTT assay is a commonly used method in evaluation of cell survival, based on the ability of viable cells to convert MTT (MTT, Sigma, Cat No. 044K5307), a soluble tetrazolium salt [3-(4,5-dimethylthuazole-2-yl)-2,5 diphenyl tetrazolium bromide], into an insoluble formazan precipitate, which is quantitated by spectrophotometry following solubilization in dimethyl sulfoxide (DMSO).
In brief, different carcinoma cells were treated with negative control, various test articles at different concentration, and positive control (DDP), in 96-well tissue culture dishes. Each test article at different concentration is repeated 3 times.
Different carcinoma cells were diluted with 10% FBS and RPM1640 or MEM media to a concentration of 3-5×10^4 per ml suspension. 100 microliter of cells were incubated in each well in 96-well tissue culture dishes at 37 C. The cells were incubated at 37 C on the first day. On the second day, media supernatant was removed and replaced with media and different concentration of test articles (100 microliter in each well). Three Negative control wells and three positive control (DDP) wells were also included. The 96-well plate were incubated at 37 C for another 68 hours. After 68 hours, supernatant of each well was removed. 100 microliter of 1 mg/ml MTT diluted in PBS was injected into each well. The cells were incubated at 37 C for another 4 hours. The cells were then solubilized in 150 microliter DMSO, mixed for 10 minutes and absorbance readings were taken using Microplate reader Bio-Rad Model 550 at 570 nm. IR (cell growth inhibition rate) % was calculated as (OD570 of negative control-OD570 with test article)/OD570 of negative control. IC50 (cell 50% inhibition concentration) at 95% confidence level was calculated with Bliss method.

U251 = experiment: MTT survival assay, glioma cell line (brain tumor U251); conditions: for IC50 (95% confidence level): Bliss method, unit not printed (concentrations in μg/ml)
Method in brief: (§1)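 After overnight attachment, cells in 10% FBS RPMI1640 or MEM were exposed to test articles for 68 hours at 37 C, in triplicate. Viability was read as MTT (1 mg/ml, 4 h) formazan absorbance at 570 nm after DMSO solubilization. Growth inhibition was taken relative to negative control, with IC50 at 95% confidence by Bliss method.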

A459 = experiment: MTT survival assay, lung cancer cell line (A459); parameters: IC50 (95% confidence level), interval: unit not given beside the values; conditions: for IC50 (95% confidence level), interval: 95% confidence limits of IC50; for IC50 (95% confidence level): Bliss method, unit not printed (concentrations in μg/ml)
Method in brief: as §1

SKOV3 = experiment: MTT survival assay, ovarian cancer cell line (SKOV3); conditions: SKOV3 (first table)
Method in brief: as §1

[1] = U251 (first table), 0.0625 μg/ml
[2] = U251 (second table), 0.0625 μg/ml
[3] = U251 (second table), 0.25 μg/ml
[4] = A459 Experiment #2, 0.0625 μg/ml

## N.N.[Cl][Pt][Cl] [DDP, cisplatin, reference compound]
HCT116; 0.25 μg/ml
  IR (%): 51.0%
  OD(A570 nm): 0.266 ± 0.016
HCT116; 1 μg/ml
  IR (%): 62.9%
  OD(A570 nm): 0.201 ± 0.060
HCT116; 4 μg/ml
  IR (%): 75.5%
  OD(A570 nm): 0.133 ± 0.016
HCT116; 95% confidence limits of IC50
  IC50 (95% confidence level), interval: 0.211-0.257
HCT116; Bliss method, unit not printed (concentrations in μg/ml)
  IC50 (95% confidence level): 0.234
U251; [1]
  IR (%): 16.8%
  OD(A570 nm): 0.729 ± 0.090
U251; U251 (first table), 0.25 μg/ml
  IR (%): 21.5%
  OD(A570 nm): 0.688 ± 0.035
U251; U251 (first table), 1 μg/ml
  IR (%): 58.4%
  OD(A570 nm): 0.365 ± 0.058
U251; U251 (first table), 4 μg/ml
  IR (%): 80.2%
  OD(A570 nm): 0.174 ± 0.009
U251; U251 (first table)
  IC50 (95% confidence level): 1.13
U251; [2]
  IR (%): 16.8%
  OD(A570 nm): 0.729 ± 0.090
U251; [3]
  IR (%): 21.5%
  OD(A570 nm): 0.688 ± 0.035
U251; U251 (second table), 1 μg/ml
  IR (%): 58.4%
  OD(A570 nm): 0.365 ± 0.058
U251; U251 (second table), 4 μg/ml
  IR (%): 80.2%
  OD(A570 nm): 0.174 ± 0.009
U251; U251 (second table)
  IC50 (95% confidence level): 1.13
A459; A459, 0.0625 μg/ml
  IR (%): 23.9%
  OD(A570 nm): 0.485 ± 0.046
A459; A459, 0.25 μg/ml
  IR (%): 18.8%
  OD(A570 nm): 0.517 ± 0.073
A459; A459, 1 μg/ml
  IR (%): 46.4%
  OD(A570 nm): 0.341 ± 0.060
A459; A459, 4 μg/ml
  IR (%): 71.0%
A459; A459
  IC50 (95% confidence level), interval: 1.113-1.213
  IC50 (95% confidence level): 1.162
A459; [4]
  IR (%): 23.9%
  OD(A570 nm): 0.485 ± 0.046
A459; A459 Experiment #2, 0.25 μg/ml
  IR (%): 18.8%
  OD(A570 nm): 0.517 ± 0.073
A459; A459 Experiment #2, 1 μg/ml
  IR (%): 46.4%
  OD(A570 nm): 0.341 ± 0.060
A459; A459 Experiment #2, 4 μg/ml
  IR (%): 71.0%
A459; A459 Experiment #2
  IC50 (95% confidence level), interval: 1.114-1.213
  IC50 (95% confidence level): 1.162
SKOV3; 0.0625 μg/ml
  IR (%): 1.6%
  OD(A570 nm): 0.689 ± 0.065
SKOV3; 0.25 μg/ml
  IR (%): 8.3%
  OD(A570 nm): 0.643 ± 0.141
SKOV3; 1 μg/ml
  IR (%): 62.0%
